This passage reports Drug metabolism results from ChEMBL document CHEMBL3526033, “Identification of human liver cytochrome P450 enzymes involved in the metabolism of SCH 530348 (Vorapaxar), a potent oral thrombin protease-activated receptor 1 antagonist” (Drug Metab Dispos, 2011).

What all share (format): ADME
The test system of data set [1] is Liver microsome. Briefly: Drug metabolism in human liver microsomes assessed as (3R,3aS,4S,4aR,7R,8aR,9aR)-7-amino-4-((E)-2-(5-(3-fluorophenyl)pyridin-2-yl)vinyl)-3-methyldecahydronaphtho[2,3-c]furan-1(3H)-one formation at 10 to 25 uM after 120 mins by LC-MS/MS analysis in presence of tranylcypromine. The following applies: 2 h.
The test system of data set [2] is Liver microsome. Briefly: Drug metabolism in human liver microsomes assessed as (3R,3aS,4S,4aR,7R,8aR,9aR)-7-amino-4-((E)-2-(5-(3-fluorophenyl)pyridin-2-yl)vinyl)-3-methyldecahydronaphtho[2,3-c]furan-1(3H)-one formation at 10 to 25 uM after 120 mins by LC-MS/MS analysis in presence of ketoconazole. To be noted: 2 h.
For data set [3], the system named is Liver microsome. Description: Drug metabolism in human liver microsomes overexpressing CYP3A4 assessed as (3R,3aS,4S,4aR,7R,8aR,9aR)-7-amino-4-((E)-2-(5-(3-fluorophenyl)pyridin-2-yl)vinyl)-3-methyldecahydronaphtho[2,3-c]furan-1(3H)-one formation at 25 uM after 120 mins by LC-MS/MS analysis in presence of tranylcypromine. To be noted: 2 h.
In data set [4] the test system is Liver microsome. Description: Drug metabolism in human liver microsomes assessed as 2-hydroxyethyl (1R,3aR,4aR,6R,8aR,9S,9aS)-9-((E)-2-(5-(3-fluorophenyl)pyridin-2-yl)vinyl)-1-methyl-3-oxododecahydronaphtho[2,3-c]furan-6-ylcarbamate formation at 25 uM after 120 mins by LC-MS/MS analysis in presence of astemizole. To be noted: 2 h.
The target of data set [5] is T1, Cytochrome P450 3A4 (Homo sapiens, UniProt P08684). Description: Drug metabolism assessed as human recombinant CYP3A4-mediated 2-hydroxyethyl (1R,3aR,4aR,6R,8aR,9S,9aS)-9-((E)-2-(5-(3-fluorophenyl)pyridin-2-yl)vinyl)-1-methyl-3-oxododecahydronaphtho[2,3-c]furan-6-ylcarbamate formation at 25 uM after 120 mins by LC-MS/MS analysis in presence of astemizole. The following applies: recombinant enzyme, 2 h.
T1 sequence (P08684 whole entry): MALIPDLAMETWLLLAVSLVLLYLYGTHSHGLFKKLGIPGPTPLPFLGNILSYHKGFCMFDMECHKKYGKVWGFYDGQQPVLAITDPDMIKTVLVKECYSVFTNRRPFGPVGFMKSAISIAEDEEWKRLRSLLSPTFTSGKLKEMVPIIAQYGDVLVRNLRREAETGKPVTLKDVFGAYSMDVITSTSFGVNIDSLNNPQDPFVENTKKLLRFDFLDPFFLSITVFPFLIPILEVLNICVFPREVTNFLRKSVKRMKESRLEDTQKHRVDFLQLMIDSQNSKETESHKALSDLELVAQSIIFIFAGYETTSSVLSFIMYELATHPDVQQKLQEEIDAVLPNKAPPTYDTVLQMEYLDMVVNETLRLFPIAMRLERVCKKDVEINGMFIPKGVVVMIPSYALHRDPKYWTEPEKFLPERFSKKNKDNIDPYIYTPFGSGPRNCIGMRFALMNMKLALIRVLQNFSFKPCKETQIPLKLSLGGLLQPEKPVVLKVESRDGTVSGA

In the next data set the target is Cytochrome P450 2C8 (Homo sapiens, UniProt P10632). Briefly: Activity of human recombinant CYP2C8 assessed as enzyme-mediated drug metabolism treated with 25 uM vorapaxar after 120 mins by LC-MS/MS analysis in presence of NADPH. To be noted: 2 h.
Chain of Cytochrome P450 2C8 (P10632 whole entry): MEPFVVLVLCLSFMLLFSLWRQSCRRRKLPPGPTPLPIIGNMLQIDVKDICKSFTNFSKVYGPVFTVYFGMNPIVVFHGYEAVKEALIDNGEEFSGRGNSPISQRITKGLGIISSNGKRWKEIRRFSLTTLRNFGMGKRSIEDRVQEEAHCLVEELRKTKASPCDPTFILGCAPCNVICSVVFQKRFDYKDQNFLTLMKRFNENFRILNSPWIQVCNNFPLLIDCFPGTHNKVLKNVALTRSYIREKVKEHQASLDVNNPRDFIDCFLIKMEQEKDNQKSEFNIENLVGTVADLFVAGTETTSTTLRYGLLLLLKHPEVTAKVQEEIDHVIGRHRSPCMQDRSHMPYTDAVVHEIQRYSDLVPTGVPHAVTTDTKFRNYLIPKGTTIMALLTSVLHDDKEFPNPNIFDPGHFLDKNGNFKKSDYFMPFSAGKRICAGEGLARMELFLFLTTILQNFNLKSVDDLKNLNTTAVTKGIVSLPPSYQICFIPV
The target in another data set is Cytochrome P450 2C18 (Homo sapiens, UniProt P33260). Description: Activity of human recombinant CYP2C18 assessed as enzyme-mediated drug metabolism treated with 25 uM vorapaxar after 120 mins by LC-MS/MS analysis in presence of NADPH. To be noted: 2 h.
Chain of Cytochrome P450 2C18 (P33260 whole entry): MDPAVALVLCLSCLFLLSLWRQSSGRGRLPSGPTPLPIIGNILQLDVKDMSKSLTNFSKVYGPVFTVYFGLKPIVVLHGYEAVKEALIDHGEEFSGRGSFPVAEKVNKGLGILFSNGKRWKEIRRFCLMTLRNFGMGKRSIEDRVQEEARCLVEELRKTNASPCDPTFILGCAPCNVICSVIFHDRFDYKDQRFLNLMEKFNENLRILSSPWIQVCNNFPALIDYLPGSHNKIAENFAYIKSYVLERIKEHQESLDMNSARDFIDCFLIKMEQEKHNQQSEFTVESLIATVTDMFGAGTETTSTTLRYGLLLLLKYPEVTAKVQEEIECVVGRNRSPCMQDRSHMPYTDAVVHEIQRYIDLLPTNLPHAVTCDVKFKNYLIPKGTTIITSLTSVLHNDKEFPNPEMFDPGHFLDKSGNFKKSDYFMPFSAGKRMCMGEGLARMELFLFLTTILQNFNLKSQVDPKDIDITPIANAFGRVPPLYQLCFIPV
In data set [6] the target is T2, Cytochrome P450 2D6 (Homo sapiens, UniProt P10635). Description: Activity of human recombinant CYP2D6 assessed as enzyme-mediated drug metabolism treated with 25 uM vorapaxar after 120 mins by LC-MS/MS analysis in presence of NADPH. The following applies: 2 h.
T2 sequence (P10635 whole entry): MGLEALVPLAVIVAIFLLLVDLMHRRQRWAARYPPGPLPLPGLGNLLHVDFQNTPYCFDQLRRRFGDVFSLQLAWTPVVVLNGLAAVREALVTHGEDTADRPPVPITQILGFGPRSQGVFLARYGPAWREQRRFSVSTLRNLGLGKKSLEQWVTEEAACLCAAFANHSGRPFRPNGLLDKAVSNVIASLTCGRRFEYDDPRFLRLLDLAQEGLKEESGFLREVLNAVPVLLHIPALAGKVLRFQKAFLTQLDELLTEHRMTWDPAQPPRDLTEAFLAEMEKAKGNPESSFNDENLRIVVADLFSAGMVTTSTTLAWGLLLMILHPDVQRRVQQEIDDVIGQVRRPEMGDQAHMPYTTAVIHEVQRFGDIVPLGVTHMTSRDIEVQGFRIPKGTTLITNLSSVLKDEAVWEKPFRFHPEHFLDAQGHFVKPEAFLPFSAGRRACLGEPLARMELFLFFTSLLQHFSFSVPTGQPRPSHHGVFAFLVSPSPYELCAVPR
A further data set deals with Cytochrome P450 2E1 (Homo sapiens, UniProt P05181). Briefly: Activity of human recombinant CYP2E1 assessed as enzyme-mediated drug metabolism treated with 25 uM vorapaxar after 120 mins by LC-MS/MS analysis in presence of NADPH. To be noted: 2 h.
Chain of Cytochrome P450 2E1 (P05181 whole entry): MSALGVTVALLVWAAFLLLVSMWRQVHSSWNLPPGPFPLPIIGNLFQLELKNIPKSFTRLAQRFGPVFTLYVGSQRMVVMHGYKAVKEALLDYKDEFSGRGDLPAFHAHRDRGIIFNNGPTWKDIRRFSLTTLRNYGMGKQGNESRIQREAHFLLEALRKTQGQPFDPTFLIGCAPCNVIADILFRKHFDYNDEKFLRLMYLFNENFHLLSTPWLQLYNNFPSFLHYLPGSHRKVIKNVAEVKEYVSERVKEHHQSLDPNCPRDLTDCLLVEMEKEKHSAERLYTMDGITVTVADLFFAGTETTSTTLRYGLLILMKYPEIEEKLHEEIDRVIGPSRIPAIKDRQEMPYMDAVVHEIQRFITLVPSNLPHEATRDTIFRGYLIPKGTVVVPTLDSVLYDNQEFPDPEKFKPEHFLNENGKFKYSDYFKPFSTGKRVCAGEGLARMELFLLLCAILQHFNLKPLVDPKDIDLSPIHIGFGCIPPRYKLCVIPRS
Data set [7] addresses T1, Cytochrome P450 3A4. Description: Activity of human recombinant CYP3A4 assessed as enzyme-mediated 2-hydroxyethyl (1R,3aR,4aR,6R,8aR,9S,9aS)-9-((E)-2-(5-(3-fluorophenyl)pyridin-2-yl)vinyl)-1-methyl-3-oxododecahydronaphtho[2,3-c]furan-6-ylcarbamate formation at 25 uM after 120 mins by LC-MS/MS analysis in presence of NADPH. The following applies: 2 h.
For a further data set, the target named is T3, Cytochrome P450 1A2 (Homo sapiens, UniProt P05177).
T3 sequence (P05177 whole entry): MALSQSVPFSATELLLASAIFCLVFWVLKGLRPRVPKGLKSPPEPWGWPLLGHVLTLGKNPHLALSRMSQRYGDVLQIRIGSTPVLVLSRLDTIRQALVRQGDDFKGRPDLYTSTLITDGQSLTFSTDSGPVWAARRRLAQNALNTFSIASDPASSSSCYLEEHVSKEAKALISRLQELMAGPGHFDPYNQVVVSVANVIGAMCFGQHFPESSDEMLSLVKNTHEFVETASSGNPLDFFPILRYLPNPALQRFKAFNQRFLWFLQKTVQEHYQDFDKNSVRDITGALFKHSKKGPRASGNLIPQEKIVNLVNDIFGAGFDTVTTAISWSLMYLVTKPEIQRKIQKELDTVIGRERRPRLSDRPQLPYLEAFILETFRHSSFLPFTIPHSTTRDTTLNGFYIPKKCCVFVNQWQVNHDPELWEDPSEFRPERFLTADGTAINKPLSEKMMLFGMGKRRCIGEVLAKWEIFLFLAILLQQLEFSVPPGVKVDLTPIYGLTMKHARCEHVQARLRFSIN
Briefly: Activity of human recombinant CYP1A2 assessed as enzyme-mediated 2-hydroxyethyl (1R,3aR,4aR,6R,8aR,9S,9aS)-9-((E)-2-(5-(3-fluorophenyl)pyridin-2-yl)vinyl)-1-methyl-3-oxododecahydronaphtho[2,3-c]furan-6-ylcarbamate formation at 25 uM after 120 mins by LC-MS/MS analysis in presence of NADPH. To be noted: 2 h.

Another data set addresses Cytochrome P450 1B1 (Homo sapiens, UniProt Q16678). Briefly: Activity of human recombinant CYP1B1 assessed as enzyme-mediated 2-hydroxyethyl (1R,3aR,4aR,6R,8aR,9S,9aS)-9-((E)-2-(5-(3-fluorophenyl)pyridin-2-yl)vinyl)-1-methyl-3-oxododecahydronaphtho[2,3-c]furan-6-ylcarbamate formation at 25 uM after 120 mins by LC-MS/MS analysis in presence of NADPH. To be noted: 2 h.
The next data set concerns the target Cytochrome P450 4A11 (Homo sapiens, UniProt Q02928). Briefly: Activity of human recombinant CYP4A11 assessed as enzyme-mediated 2-hydroxyethyl (1R,3aR,4aR,6R,8aR,9S,9aS)-9-((E)-2-(5-(3-fluorophenyl)pyridin-2-yl)vinyl)-1-methyl-3-oxododecahydronaphtho[2,3-c]furan-6-ylcarbamate formation at 25 uM after 120 mins by LC-MS/MS analysis in presence of NADPH. The following applies: 2 h.

For data set [8], the target named is T1, Cytochrome P450 3A4. Briefly: Activity of human recombinant CYP3A4 assessed as enzyme-mediated (3R,3aS,4S,4aR,7R,8aR,9aR)-7-amino-4-((E)-2-(5-(3-fluorophenyl)pyridin-2-yl)vinyl)-3-methyldecahydronaphtho[2,3-c]furan-1(3H)-one formation assessed per nmol of enzyme at 10 uM after 120 mins by LC-MS/MS analysis in presence of NADPH. To be noted: 2 h.
The target in a further data set is Cytochrome P450 2C19 (Homo sapiens, UniProt P33261). Description: Activity of human recombinant CYP2C19 assessed as enzyme-mediated (3R,3aS,4S,4aR,7R,8aR,9aR)-7-amino-4-((E)-2-(5-(3-fluorophenyl)pyridin-2-yl)vinyl)-3-methyldecahydronaphtho[2,3-c]furan-1(3H)-one formation at 25 uM after 120 mins by LC-MS/MS analysis in presence of NADPH. To be noted: 2 h.
Chain of Cytochrome P450 2C19 (P33261 whole entry): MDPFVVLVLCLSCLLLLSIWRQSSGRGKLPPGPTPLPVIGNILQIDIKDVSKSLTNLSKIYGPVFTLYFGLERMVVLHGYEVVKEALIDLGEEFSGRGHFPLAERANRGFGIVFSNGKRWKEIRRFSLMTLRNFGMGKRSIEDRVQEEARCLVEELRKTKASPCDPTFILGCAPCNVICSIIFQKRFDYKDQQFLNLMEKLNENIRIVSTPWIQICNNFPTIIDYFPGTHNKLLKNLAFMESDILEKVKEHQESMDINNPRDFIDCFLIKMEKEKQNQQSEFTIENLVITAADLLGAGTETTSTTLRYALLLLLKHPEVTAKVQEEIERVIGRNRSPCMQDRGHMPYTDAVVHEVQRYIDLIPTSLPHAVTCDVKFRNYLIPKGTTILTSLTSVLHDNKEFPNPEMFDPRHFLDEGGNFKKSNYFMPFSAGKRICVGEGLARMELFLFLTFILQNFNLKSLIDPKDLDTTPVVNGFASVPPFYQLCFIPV
The target of data set [9] is T2, Cytochrome P450 2D6. Description: Activity of human recombinant CYP2D6 assessed as enzyme-mediated drug metabolism at 10 uM after 120 mins by LC-MS/MS analysis. The following applies: 2 h.
Data set [10] deals with T1, Cytochrome P450 3A4. Description: Activity of human recombinant CYP3A4 assessed as enzyme-mediated drug metabolism at 10 uM after 120 mins by LC-MS/MS analysis. The following applies: 2 h.

Chain of Cytochrome P450 4A11 (Q02928 whole entry): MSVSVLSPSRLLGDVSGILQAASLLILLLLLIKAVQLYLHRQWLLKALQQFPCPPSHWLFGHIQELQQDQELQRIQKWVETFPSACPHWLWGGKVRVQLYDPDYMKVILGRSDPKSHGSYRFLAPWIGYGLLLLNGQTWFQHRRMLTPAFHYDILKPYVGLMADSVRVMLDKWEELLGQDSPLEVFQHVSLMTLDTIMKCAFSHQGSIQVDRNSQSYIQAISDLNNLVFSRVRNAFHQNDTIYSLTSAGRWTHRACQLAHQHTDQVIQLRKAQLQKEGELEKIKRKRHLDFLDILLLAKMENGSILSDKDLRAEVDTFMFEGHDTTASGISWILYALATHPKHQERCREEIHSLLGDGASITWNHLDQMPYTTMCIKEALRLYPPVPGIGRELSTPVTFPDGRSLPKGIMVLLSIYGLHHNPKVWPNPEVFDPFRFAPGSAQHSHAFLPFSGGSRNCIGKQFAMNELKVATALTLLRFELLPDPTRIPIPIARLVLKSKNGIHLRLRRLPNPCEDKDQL
Chain of Cytochrome P450 1B1 (Q16678 whole entry): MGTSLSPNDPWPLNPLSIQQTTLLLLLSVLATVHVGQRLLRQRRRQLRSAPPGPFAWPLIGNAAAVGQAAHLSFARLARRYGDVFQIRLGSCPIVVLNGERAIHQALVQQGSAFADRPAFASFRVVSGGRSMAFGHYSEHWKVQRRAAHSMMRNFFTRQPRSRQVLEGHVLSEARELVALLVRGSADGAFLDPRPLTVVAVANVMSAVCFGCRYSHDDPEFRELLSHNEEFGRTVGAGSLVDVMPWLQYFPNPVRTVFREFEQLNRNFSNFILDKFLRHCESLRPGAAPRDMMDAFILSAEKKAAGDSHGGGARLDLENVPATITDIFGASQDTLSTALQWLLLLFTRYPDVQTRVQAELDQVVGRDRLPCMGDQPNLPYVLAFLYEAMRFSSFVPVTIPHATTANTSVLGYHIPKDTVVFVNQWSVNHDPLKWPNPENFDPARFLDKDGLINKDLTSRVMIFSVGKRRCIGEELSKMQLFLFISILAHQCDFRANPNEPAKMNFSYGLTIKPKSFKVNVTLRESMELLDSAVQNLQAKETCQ

On to `CCOC(=O)N[C@@H]1CC[C@@H]2[C@@H](C1)C[C@H]1C(=O)O[C@H](C)[C@H]1[C@H]2/C=C/c1ccc(-c2cccc(F)c2)cn1` [VORAPAXAR], for which the Drug metabolism result in the data set with Liver microsome [1], in the data set on Liver microsome [2], in the data set on Liver microsome [3], in the data set on Liver microsome [4] and at Cytochrome P450 3A4 [5] was “metabolite_not_detected” throughout.
For `C[C@H]1OC(=O)[C@@H]2C[C@@H]3C[C@H](NC(=O)OCCO)CC[C@H]3[C@H](/C=C/c3ccc(-c4cccc(F)c4)cn3)[C@H]12`, the Drug metabolism entry at Cytochrome P450 2C8, on Cytochrome P450 2C18, on Cytochrome P450 2D6 [6] and on Cytochrome P450 2E1 was “metabolite_detected” throughout.
Take `CCOC(=O)N[C@@H]1CC[C@@H]2[C@@H](C1)C[C@H]1C(=O)O[C@H](C)[C@H]1[C@H]2/C=[14CH]/c1ccc(-c2cccc(F)c2)cn1`: the Drug metabolism entry was “metabolite_detected” at Cytochrome P450 3A4 [7]; “metabolite_detected” at Cytochrome P450 1A2; “metabolite_detected” on Cytochrome P450 1B1; “metabolite_detected” on Cytochrome P450 4A11; 109.8 pmol/min at Cytochrome P450 3A4 [8]; “metabolite_detected” at Cytochrome P450 2C19. Also, the Drug metabolism result on Cytochrome P450 2D6 [9] and at Cytochrome P450 3A4 [10] was “metabolite_not_detected” throughout.
